Data reported in patent publication US7118759B2 (priority 2001, dated 2006).
Where two headings read alike, the source gives them in different places.

Assays:
Type in all cases: cell-based, Staphylococcus aureus
S. aureus (MN8) = conditions: for Reduction of Toxin (%): vs methanol control
S. aureus FRI-1187 = tested on: S. aureus FRI-1187
S. aureus FRI-1169 = tested on: S. aureus FRI-1169

Row | SMILES | TSST-1 produced when compared to the control (S. aureus (MN8)) | ELISA: TSST-1 ng/OD unit (S. aureus (MN8); 2 μg/mL test compound, 24 hours) [ng/OD unit] | Reduction of Toxin (%) (S. aureus (MN8); 2 μg/mL test compound) | TSST-1 produced when compared to the control (S. aureus FRI-1187) | ELISA: TSST-1 ng/OD unit (S. aureus FRI-1187; 0.5 ug/mL triclosan) [ng/OD unit] | Reduction of Toxin (%) (S. aureus (MN8); 0.01 μg/mL test compound) | TSST-1 produced when compared to the control (S. aureus FRI-1169) | ELISA: TSST-1 ng/OD unit (S. aureus FRI-1169; 0.5 μg/mL triclosan) [ng/OD unit]
1 | Oc1c(Cl)cc(Cl)c(Cl)c1Cc1c(O)c(Cl)cc(Cl)c1Cl [Hexachlorophene, hexachlorophene] | significantly less TSST-1 | 330 | 68 |  |  |  |  | 
2 | Oc1cc(Cl)ccc1Oc1ccc(Cl)cc1Cl [Triclosan, triclosan] | significantly less TSST-1 |  |  | less TSST-1 | 95 | 88 | less TSST-1 | 40
